Assay results as given in patent publication US20260130966A1, “NOVEL THERAPEUTICS FOR PARASITIC INFECTION” (UNIVERSITY OF SOUTH FLORIDA, priority 2022, published 2026).
pEC50, pIC50: −log10 of the molar value. In brackets after ≈: the same amount, converted by molar mass. Several values for one entry are separate records, joined by “and”; a condition that tells them apart may be missing. Equal entries are not always repeated. Entries after “also recorded” stand apart in the source; their conditions may differ. Where two headings read alike, the source gives them in different places. Where a SMILES comes first, the peptide text is derived from it. [ ]: non-standard residue; d: D form. The star is where a group is joined. ξ: configuration not given here. Phe(Nα-CONH2) = NC(=O)N[C@@H](Cc1ccccc1)C(=O)*; NMeI = CC[C@H](C)[C@H](NC)C(=O)O; NMeξIle = CC[C@H](C)C(NC)C(=O)O; X1 = CN(/C=C\c1c[nH]c2ccccc12)*; NMeL = CN[C@@H](CC(C)C)C(=O)O; NMeV = CN[C@H](C(=O)O)C(C)C; NMeA = CN[C@@H](C)C(=O)O; For = O=C*

Experiments:
Leishmania donovani = Leishmania donovani infected macrophage assay; format: cell-based
Experimental: The Leishmania donovani infected macrophage assay and cytotoxicity screen were conducted as previously described.

P. falciparum Dd2 = experiment: microbe, parasite or virus in culture; format: cell-based, Plasmodium falciparum
Experimental: (§1) For parasite suspension, P. falciparum malaria strains were grown under normal conditions as previously described by Trager and Jensen with some modifications.” Briefly, parasites were suspended in RPMI 1640 supplemented with 0.23% sodium bicarbonate, […] hypoxanthine and 0.5% albumax (CM), 4% packed washed red blood cells by volume and incubated in a continuous gas incubator set to normal conditions (5% O2, 5% CO2, […]). Parasites were prepared for drug susceptibility assay by highly synchronizing schizonts 16 h before experiment start by using a 70% percoll method. Ring stage parasites were then resuspended in culture with fresh CM containing 2% hematocrit and 0.5% parasitemia.
(§2) Antimalaria activity was assessed against reference strains of NF54, 3D7 and Dd2 using an adaptation of the sensitivity assay of Desjardins et al. using SybrGreen fluorescence as an assessment of parasite growth.^32 NF54 original isolate was obtained from a patient living near Schiphol Airport, Amsterdam and its clonal isolate 3D7 are generally considered to be drug sensitive, though 3D7 does convey resistance to sulfadoxine. Dd2 derived from the parent W2, is multi-drug-resistant line originating from the Indochina III/CDC isolate, which contain point mutations in pfcrt as well as amplifications in pfmdr1 and GTP cyclohydrolase. Briefly, compounds were diluted to 10 μg/mL and serially diluted along a microtiter plate before adding in 100 μL/well of the parasite suspension. Parasite growth was compared to controls incubated at 37° C. and normal culture conditions (5% O2, 5% CO2, 90% N2) for 72 h. Plates were frozen and thawed before adding a final 1× concentration of SybrGreen in lysis buffer and read on the CLARIOstar fluorescence plate reader (Ex/Em 484-15/528-15) following a 45 min incubation at room temperature. Drug EC50 values were calculated by interpolation of the probit transformation of the log(dose)-response curve using the MARS software provided by BMG.

P. falciparum 3D7 = experiment: microbe, parasite or virus in culture; format: cell-based, Plasmodium falciparum
Experimental: as §1, §2

P. falciparum NF54 = experiment: microbe, parasite or virus in culture; format: cell-based, Plasmodium falciparum
Experimental: as §1, §2

[1] = test system: murine J774 macrophage cells; experiment: Cytotoxicity testing against murine J774 macrophage cells (CellTiter 96); format: cell-based
Experimental: The isolated compounds were each tested for cytotoxicity using mammalian J774A.1 cell lines (ATCC TIB-67™) in complete media; RPMI 1640 medium with phenol red containing L-glutamine and then supplemented with 10% fetal bovine serum (CM). Cells were seeded at 5×10^5 cell/mL and plated in a 96-well format with 100 μL/well fresh media on day 0 and were incubated overnight at 37° C., 5% CO2 for adherence. Following 24 h incubation, spent media was removed and 100 μL of fresh media with test compounds were serially diluted 1:2 with a starting concentration of 10 μg/mL was added to the cells and incubated for an additional 68 h before adding in 20 μL CellTiter 96® AQueous One Solution Cell Proliferation Assay reagent (Promega). Cells were incubated for an additional 4 h before reading absorbance (490) nm on the CLARIOstar plate reader.

[2] = test system: ESKAPE panel of bacterial pathogens; experiment: ESKAPE panel antibacterial screen; format: cell-based
[3] = test system: Blood-Stage P. falciparum Strains; experiment: Initial blood-stage screen against several P. falciparum strains; format: cell-based, Plasmodium falciparum
Experimental: as §1, §2

C. difficile UK6 = experiment: C. difficile MIC screening; format: cell-based, Clostridium difficile; conditions: Clostridioides difficile, UK6
HepG2 = experiment: MTT cytotoxicity, human liver HepG2 cells; format: cell-based; conditions: HepG2, same concentrations alcyopterosins were assayed
Experimental: (§3) The cytotoxicity of the metabolites to human liver cells and kidney cells was determined using an MTT based-In Vitro Toxicology Assay Kit (Sigma-Aldrich, St. Louis, MO, USA) following the manufacturing instructions. The human kidney HEK293T cells and the human liver HEPGZ cells were used for the evaluation in this study. Both cell samples were maintained and suspended in Dulbecco's Modified Eagle Medium (DMEM with 4.5 g/L glucose, L-glutamine and sodium pyruvate, Corning, Manassas, VA, USA) containing 10% fetal bovine serum (Thermo Scientific) and 1% penicillin/streptomycin at 37° C. under 5% CO2 atmosphere. The cells were plated on a 96-well plate with approximately 5×10^3-1×10^4 cells in each well, and incubated at 37° C. overnight. […] After that, the liquid in each well of the plate was removed carefully and thoroughly, then the cells in the wells were treated with 100 μL of DMSO, and incubated at 37° C. for 15 m. […] Bio Tek Instruments, Inc. Winooski VT). Cells treated with vancomycin, a common option for treating CDI in clinical settings, were also included in the MTT tests as a control. Cell survival and the IC50 were calculated according to the method used in a previous publication: Survival of cells (%)=Drug-treated group OD540/control group OD540×100.

HEK293T = experiment: MTT cytotoxicity, human kidney HEK293T cells; format: cell-based; conditions: HEK293T, same concentrations alcyopterosins were assayed
Experimental: as §3

[4] = cytotoxicity, murine J774 macrophage cells, read-out: EC50

Molecule | pIC50 (P. falciparum Dd2; Dd2) | pIC50 (P. falciparum 3D7; 3D7) | pIC50 (P. falciparum NF54; NF54) | EC50 (μg/mL) [1] | pEC50 [1, 4] | further results
4,12-Bis(acetyl)alcyopterosin O [Compound C8] | – | – | – | – | – | pIC50 (Leishmania donovani): 5.92
CCN(CC)CCCC(C)Nc1ccnc2cc(Cl)ccc12 (stereo not shown) [Chloroquine, reference compound] | – | – | – | – | – | pIC50 (P. falciparum Dd2; Plasmodium falciparum, DD2, read-out: IC50 Values against Blood-Stage P. falciparum Strains: Dd2): 5.89; pIC50 (P. falciparum 3D7; Plasmodium falciparum, 3D7, read-out: IC50 Values against Blood-Stage P. falciparum Strains: 3D7): 7.52; pIC50 (P. falciparum NF54; Plasmodium falciparum, NF54, read-out: IC50 Values against Blood-Stage P. falciparum Strains: NF54): 7.52; EC50 ([1]; Mus musculus, J774): 16.3 µg/mL and 51 µM
CC(=O)O[C@@H]1[C@H](OC(C)=O)[C@H]([C@H](C)CCCC(C)C)[C@@]2(C)C[C@@H](OC(C)=O)[C@H]3[C@@H](C[C@@H](O)[C@H]4CC=CC(=O)[C@]34C)[C@H]12 [Compound C5, alcyosterone] | – | – | – | – | – | pIC50 (Leishmania donovani; Macrophage): 5.82; activity against the ESKAPE panel [2]: inactive
Cc1cc2c(c(C)c1CCO[N+](=O)[O-])CC(C)(C)C2=O [Compound C6, alcyopterosin C] | – | – | – | – | – | pIC50 (Leishmania donovani): 4.89
Cc1cc2c(c3c1[C@@H](CCl)OC3=O)CC(C)(C)[C@@H]2O [Compound C9, alcyopterosin L] | – | – | – | – | – | pIC50 (Leishmania donovani): 5.62
CC[C@H](C)[C@@H](C(=O)N(C)/C=C\c1c[nH]c2ccccc12)N(C)C(=O)[C@H](C(C)C)N(C)C(=O)[C@H](C(C)C)N(C)C(=O)[C@H](CC(C)C)N(C)C(=O)[C@@H]1CCCN1C(=O)[C@H](Cc1ccccc1)NC(=O)[C@H](Cc1ccccc1)NC(C)=O [Compound P2, friomaramide B] (Ac-FFP[NMeL][NMeV][NMeV][NMeI]-X1) | 5.48 | 5.06 | 5.41 | 26.7 µg/mL (≈ 24.6 µM) | – | pEC50 [1]: 4.61; blood-stage anti-malarial activity [3]: modest activity
CC[C@H](C)[C@@H](C(N)=O)N(C)C(=O)[C@H](C(C)C)N(C)C(=O)[C@H](CC(C)C)N(C)C(=O)[C@H](Cc1ccccc1)N(C)C(=O)[C@H](Cc1ccccc1)NC=O [Compound P3, shagamide A] | 5.76 | 5.68 | 5.58 | >100 µg/mL | < 4.00 | activity against the 3D7 strain (P. falciparum 3D7; blood stage, strain 3D7): comparable activity
CC[C@H](C)C(C(=O)N(C)[C@H](C(=O)NC)[C@@H](C)CC)N(C)C(=O)[C@H](C(C)C)N(C)C(=O)[C@H](C)N(C)C(=O)[C@H](C(C)C)N(C)C(=O)[C@H](C(C)C)N(C)C(=O)[C@@H](NC=O)C(C)C (stereo partly shown) [Compound P4, shagamide B] (For-V[NMeV][NMeV][NMeA][NMeV][NMeξIle][NMeI]-NHMe) | 5.36 | < 5.00 | < 5.00 | >100 µg/mL | < 4.00 | blood-stage anti-malarial activity [3]: did not show significant activity; also recorded: inactive
CNC(=O)[C@H](C(C)C)N(C)C(=O)[C@H](C(C)C)N(C)C(=O)[C@H](C(C)C)N(C)C(=O)[C@H](C)N(C)C(=O)[C@H](C)N(C)C(=O)[C@H](CC(C)C)N(C)C(=O)[C@H](C(C)C)N(C)C(=O)[C@H](Cc1ccccc1)NC=O [Compound P5, shagamide C] (For-F[NMeV][NMeL][NMeA][NMeA][NMeV][NMeV][NMeV]-NHMe) | 5.97 | 5.60 | 5.43 | >100 µg/mL | < 4.00 | inhibition of strain 3D7 (P. falciparum 3D7; blood stage, strain 3D7): 2.52 µg/mL
CNC(=O)[C@H](C(C)C)N(C)C(=O)[C@H](C(C)C)N(C)C(=O)[C@H](C(C)C)N(C)C(=O)[C@H](C)N(C)C(=O)[C@H](C)N(C)C(=O)[C@H](CC(C)C)N(C)C(=O)[C@H](C(C)C)N(C)C(=O)[C@H](Cc1ccccc1)NC(N)=O [Compound P6, shagamide D] ({Phe(Nα-CONH2)}-[NMeV][NMeL][NMeA][NMeA][NMeV][NMeV][NMeV]-NHMe) | 5.69 | < 5.00 | 5.52 | >100 µg/mL | < 4.00 | activity against the 3D7 strain (P. falciparum 3D7; blood stage, strain 3D7): inactive
CC[C@H](C)[C@@H](C(=O)NC)N(C)C(=O)[C@H](C)N(C)C(=O)[C@H](C(C)C)N(C)C(=O)[C@H](C(C)C)N(C)C(=O)[C@H](C)N(C)C(=O)[C@H](C(C)C)N(C)C(=O)[C@H](C(C)C)N(C)C(=O)[C@H](C)N(C)C(=O)[C@H](C)NC(C)=O [Compound P7, shagamide E] (Ac-A[NMeA][NMeV][NMeV][NMeA][NMeV][NMeV][NMeA][NMeI]-NHMe) | < 5.00 | < 5.00 | < 5.00 | >100 µg/mL | < 4.00 | blood-stage anti-malarial activity [3]: did not show significant activity
CC[C@H](C)[C@@H](C(=O)N(C)[C@@H](C)C(=O)N(C)[C@H](C(N)=O)C(C)C)N(C)C(=O)[C@H]([C@@H](C)CC)N(C)C(=O)[C@H](C)N(C)C(=O)[C@H](C(C)C)N(C)C(=O)[C@H](C)N(C)C(=O)[C@@H](NC(C)=O)C(C)C [Compound P8, shagamide F] (Ac-V[NMeA][NMeV][NMeA][NMeI][NMeI][NMeA][NMeV]-NH2) | < 5.00 | < 5.00 | < 5.00 | >100 µg/mL | < 4.00 | blood-stage anti-malarial activity [3]: did not show significant activity
CN[C@H](CC(C)C)C(=O)N[C@H]1C(=O)N[C@@H](CC(N)=O)C(=O)N[C@H]2C(=O)N[C@H]3C(=O)N[C@H](C(=O)N[C@H](C(=O)O)c4cc(O)cc(O)c4-c4cc3ccc4O)[C@H](O)c3ccc(c(Cl)c3)Oc3cc2cc(c3O[C@@H]2O[C@H](CO)[C@@H](O)[C@H](O)[C@H]2O[C@H]2C[C@](C)(N)[C@H](O)[C@H](C)O2)Oc2ccc(cc2Cl)[C@H]1O [Vancomycin, reference compound] | – | – | – | – | – | MIC (C. difficile UK6): 0.34 µM (≈ 0.493 µg/mL); toxicity to host cells (HepG2): non-toxic; toxicity to host cells (HEK293T): non-toxic
CCCCCCCCCCCCCCCCOP(=O)([O-])OCC[N+](C)(C)C [miltefosine, reference compound] | – | – | – | – | – | pIC50 (Leishmania donovani; Macrophage): 5.21
